Laboratory results: PubChem BioAssay (NCI)
Several values for one entry are separate records, joined by “and”; a condition that tells them apart may be missing. Equal entries are not always repeated.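 Cultured in 96-well plates, cells were exposed to test compound for 48 hours across five concentrations. Abbreviation: GI50, concentration required for 50% inhibition of growth. Definition used: TGI = concentration required for complete inhibition of growth.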

Assays:
Assay in all cases: inhibition of tumour cell growth, NCI panel, 48 h
RPMI-8226 leukemia = test system: RPMI-8226 leukemia
LOX IMVI melanoma = test system: LOX IMVI melanoma
XF 498 CNS = test system: XF 498 CNS
CCRF-CEM leukemia = test system: CCRF-CEM leukemia
SF-295 CNS = test system: SF-295 CNS
COLO 205 colon = test system: COLO 205 colon
M19-MEL melanoma = test system: M19-MEL melanoma
DLD-1 colon = test system: DLD-1 colon
LXFL 529 NSCLC = test system: LXFL 529 NSCLC
BT-549 breast = test system: BT-549 breast
HOP-62 NSCLC = test system: HOP-62 NSCLC

SMILES | TGI (RPMI-8226 leukemia) | TGI (LOX IMVI melanoma) | TGI (XF 498 CNS) | TGI (CCRF-CEM leukemia) | TGI (SF-295 CNS) | TGI (COLO 205 colon) | TGI (M19-MEL melanoma) | TGI (DLD-1 colon) | TGI (LXFL 529 NSCLC) | TGI (BT-549 breast) | TGI (HOP-62 NSCLC) | GI50 (RPMI-8226 leukemia) | GI50 (LOX IMVI melanoma) | GI50 (CCRF-CEM leukemia) | GI50 (SF-295 CNS) | GI50 (COLO 205 colon) | GI50 (M19-MEL melanoma) | GI50 (DLD-1 colon) | GI50 (BT-549 breast) | GI50 (HOP-62 NSCLC)
O=C(CC1(O)C(=O)Nc2c(Cl)cc(Cl)cc21)c1cccc([N+](=O)[O-])c1 (configuration not stated) | 58.2 µM | 35.5 µM | 37.3 µM | 48.2 µM | > 100 µM | > 61.7 µM | 16.7 µM | > 100 µM | 30 µM | > 100 µM | 98.6 µM |  |  |  |  |  |  |  |  | 
C=C(C)c1nc(Oc2ccccc2)nc(Oc2ccccc2)n1 | 12 µM | 4.51 µM | 13 µM | 9.25 µM | 29.8 µM | 17.2 µM | 7.93 µM | 6.62 µM | 3.88 µM | 13.1 µM | 25 µM |  |  |  |  |  |  |  |  | 
CC(C)CCCC(C)C1CCC2C3CC([N+](=O)[O-])=C4CC(O)CCC4(C)C3CCC12C (configuration not stated) | 46.9 µM | 36.6 µM | 37.1 µM | 42.9 µM | 30 µM | 45.7 µM | 73.3 µM | 35.9 µM | 32.9 µM |  | 42.3 µM |  |  |  |  |  |  |  |  | 
COc1nc(N)nc2nc[nH]c12 | 500 µM and > 1000 µM | 500 µM and 800 µM and > 1000 µM | 498 µM | 407 µM and 800 µM and > 920 µM | > 1000 µM | 419 µM and > 800 µM and > 1000 µM | > 800 µM | 500 µM and 800 µM | > 800 µM | 500 µM and > 1000 µM | 180 µM and 800 µM and > 923 µM | 677 µM | 677 µM and 489 µM | 563 µM | > 881 µM | > 1000 µM | > 800 µM | 655 µM | 580 µM | 576 µM and 582 µM
CCOC(=O)C1C(NC(N)=O)N(Cc2ccccc2)C(=O)N1Cc1ccccc1 (configuration not stated) | > 100 µM | > 100 µM | > 100 µM | > 100 µM | > 100 µM | > 100 µM | > 100 µM | > 100 µM | > 100 µM |  | > 100 µM |  |  |  |  |  |  |  |  | 
